Key:
[1] = target: T1, alpha-2A receptor (Homo sapiens, UniProt P08913); test: Alpha-2A receptor activity (efficacy relative to brimonidine); format: cell-based; conditions: in words; b7: lacks significant activity = less than 40% of the efficacy of brimonidine at alpha-2A
T1 sequence (P08913 1-465): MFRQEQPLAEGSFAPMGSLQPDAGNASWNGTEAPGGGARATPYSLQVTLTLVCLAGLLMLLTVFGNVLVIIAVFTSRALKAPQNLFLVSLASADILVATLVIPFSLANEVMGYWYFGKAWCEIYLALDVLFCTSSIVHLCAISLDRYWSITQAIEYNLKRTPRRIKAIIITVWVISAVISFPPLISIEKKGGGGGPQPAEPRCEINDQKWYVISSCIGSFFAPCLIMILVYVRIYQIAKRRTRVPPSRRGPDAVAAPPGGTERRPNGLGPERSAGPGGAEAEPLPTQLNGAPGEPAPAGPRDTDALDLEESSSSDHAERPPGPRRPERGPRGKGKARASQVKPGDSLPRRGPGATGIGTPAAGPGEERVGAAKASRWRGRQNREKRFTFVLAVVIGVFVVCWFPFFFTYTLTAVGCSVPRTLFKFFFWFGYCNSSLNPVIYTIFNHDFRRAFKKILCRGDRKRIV
From the text: The methods of the present invention use alpha-2 agonists lacking significant activity at the alpha-2A receptor subtype. An agonist lacks significant alpha-2A receptor activity if the agonist has less than 40% of the efficacy of brimonidine at the alpha-2A receptor subtype. Compounds of the invention include, therefore, alpha-2B receptor agonists lacking significant alpha-2A activity; alpha 2B/2C receptor agonists lacking significant alpha-2A activity; and alpha-2C receptor agonists lacking significant alpha-2A activity.
Efficacy, also known as intrinsic activity, is a measure of maximal receptor activation achieved by a compound and can be determined using any accepted assay of alpha-adrenergic receptor activation, such as a cAMP or Receptor Selection and Amplification Technology (RSAT). Efficacy is represented as a ratio or percentage of the maximal effect of the drug to the maximal effect of a standard agonist for each receptor subtype. Brimonidine, itself an alpha-2B receptor agonist (it is has 100% the efficacy of brimonidine at the alpha-2B adrenergic receptor), is used as the standard agonist for the alpha-2B adrenergic receptors.
Agonist activity can be characterized using any of a variety of routine assays, including, for example, Receptor Selection and Amplification Technology (RSAT) assays (Messier et al., Pharmacol. Toxicol. 76:308-11 (1995); cyclic AMP assays (Shimizu et al., J. Neurochem. 16:1609-1619 (1969)); and cytosensor microphysiometry assays (Neve et al., J. Biol. Chem. 267:25748-25753 (1992)). Such assays generally are performed using cells that naturally express only a single alpha-adrenergic receptor subtype, or using transfected cells expressing a single recombinant alpha-adrenergic receptor subtype. The adrenergic receptor can be a human receptor or homolog of a human receptor having a similar pharmacology.
The RSAT assay measures receptor-mediated loss of contact inhibition resulting in selective proliferation of receptor-containing cells in a mixed population of confluent cells. The increase in cell number is assessed with an appropriate detectable marker gene such as beta-galactosidase, if desired, in a high throughput or ultra high throughput assay format. Receptors that activate the G protein, Gq, elicit the proliferative response. Alpha-adrenergic receptors, which normally couple to Gi, activate the RSAT response when coexpressed with a hybrid Gq protein containing a Gi receptor recognition domain, designated Gq/i5. Conklin et al., Nature 363:274-6 (1993)).
As an example, an RSAT assay can be performed essentially as follows. NIH-3T3 cells are plated at a density of 2×10^6 cells in 15 cm dishes and maintained in Dulbecco's modified Eagle's medium supplemented with 10% calf serum. One day later, cells are cotransfected by calcium phosphate precipitation with mammalian expression plasmids encoding p-SV-β-galactosidase (5-10 μg), receptor (1-2 μg) and G protein (1-2 μg). Carrier DNA, for example 40 μg salmon sperm DNA, also can be included to increase transfection efficiency. Fresh media is added on the following day; one to two days later, cells are harvested and frozen in 50 assay aliquots. Transfected cells are thawed, and 100 μl of cells added to 100 μl aliquots of compound to be tested, with various concentrations assayed in triplicate, for example, in 96-well plates. Incubation continues for 72 to 96 hours at 37° C. After washing with phosphate-buffered saline, β-galactosidase activity is determined by adding 200 μl of chromogenic substrate (3.5 mM O-nitrophenyl-β-D-galactopyranoside/0.5% NP-40 in phosphate buffered saline), incubating overnight at 30° C., and measuring optical density at 420 nm. The absorbancy is a measure of enzyme activity, which depends on cell number and reflects receptor-mediated cell proliferation. The EC50 and maximal effect (i.e., efficacy) of each drug at each receptor is determined.

[2] = test system: mice; test: Amphetamine-induced hyperlocomotion (open field); format: in vivo; conditions: drug 2 amphetamine SC
Experimental: Table 2, below, indicates the locomotor responses of mice treated with various combinations of alpha-2B receptor agonists and the psychostimulant amphetamine. Drug 1 was administered 30 minutes after the animal was placed in the open field. Drug 2 was administered subcutaneously (SC) at 45 minutes after the animal was placed in the open field (15 minutes after drug 1). AUC indicates the total amount of locomotor activity after administration of drug 2. “% decrease activity” indicates the percentage decrease in total activity relative to the Vehicle+Amphetamine group. ° indicates significant difference (P<0.05) relative to Vehicle+Amphetamine treated animals. * indicates significant difference (P<0.05) relative to Vehicle+Vehicle treated animals.
(§1) Amphetamine- or cocaine-induced hyperactivity. Mice were placed in an open field apparatus (FlexField, San Diego Instruments, San Diego, Calif.). After 30 minutes of habituation, they received a vehicle or haloperidol injection or injection of alpha-2B receptor agonist followed by an injection of amphetamine (2 mg/kg, s.c.) or cocaine (10 mg/kg, i.p.) at minute 45. Their activity levels were subsequently measured for another 1 hour post-injection. Total activity over each 5 minute bin (21 total bins) was added to establish activity curve over the 105 minute testing.
(§2) For i.p. administration, the compounds are formulated in H2O with 0.5% DMSO and given in a volume of 1 ml/kg body weight by injecting into the intraperitoneal cavity. For p.o. administration, the compounds are formulated in H2O with 0.5% DMSO and given in a volume of 2 ml/kg body weight using a 25-gauge, 1.5 inch gavage needle that is slowly inserted through the esophagus into the stomach.

[3] = test system: nigrostriatal-lesioned rats; test: Nigrostriatal-lesion-induced rotational behavior following amphetamine administration; format: in vivo; conditions: relative to Vehicle+Amphetamine, drug 2 amphetamine SC
Experimental: Table 4, below, indicates the changes in rotational behavior in nigrostriatal-lesioned rats treated with various alpha-2B receptor agonists and the psychostimulant amphetamine. Drug 1 was administered 15 minutes before amphetamine, and 10 minutes post-amphetamine, the animals were placed into the rotometer for 30 or 60 minutes. “% decrease rotations” indicates the percentage decrease in total rotations relative to the Vehicle+Amphetamine group. ^⋄ indicates significant difference (P<0.05) relative to Vehicle+Amphetamine treated animals. * indicates significant difference (P<0.05) relative to Vehicle+Vehicle treated animals.
Amphetamine-induced rotational behavior. Pre-Apomorphine-screened (rotated) rats (with lesions ≧95% DA cell loss) were purchased from Charles Rivers Laboratories. Animals were given ˜4 days to acclimate prior to testing. All animals weighted 250-300 g at the beginning of the study. Animals were treated with various combinations of vehicle or alpha-2B receptor agonist and amphetamine.
Vehicle or alpha-2B receptor agonist was administered (p.o.) 15 minutes before amphetamine (2 mg/kg s.c.). Rotational behavior was assessed 15 minutes post-amphetamine administration and was monitored for 60 minutes using a Rotometer system from San Diego Instruments (San Diego, Calif.).
as §2

[4] = test system: mice; test: Cocaine-induced hyperlocomotion (open field); format: in vivo; conditions: drug 2 cocaine SC; for % DECREASE ACTIVITY: relative to Vehicle+Cocaine
Experimental: Table 3, below, indicates the locomotor responses of mice treated with various combinations of alpha-2B receptor agonists and the psychostimulant cocaine. Drug 1 was administered 30 minutes after the animal was placed in the open field. Drug 2 was administered subcutaneously (SC) at 45 minutes after the animal was placed in the open field (15 minutes after drug 1). AUC indicates the total amount of locomotor activity after administration of drug 2. “% decrease activity” indicates the percentage decrease in total activity relative to the Vehicle+Cocaine group. ° indicates significant difference (P<0.05) relative to Vehicle+Cocaine treated animals. * indicates significant difference (P<0.05) relative to Vehicle+Vehicle treated animals.
as §1, §2

SMILES | alpha-2A receptor activity [1] | % DECREASE ACTIVITY REL TO VEH + AMPH ([2]; drug 1 0.03 mg/kg IP) | TOTAL ACTIVITY POST-AMPHETAMINE (AUC) ([2]; drug 1 0.03 mg/kg IP) | TOTAL ACTIVITY POST-COCAINE (AUC) ([4]; drug 1 0.03 mg/kg PO) | TOTAL ACTIVITY POST-COCAINE (AUC) ([4]; drug 1 0.1 mg/kg PO) | TOTAL ACTIVITY POST-COCAINE (AUC) ([4]; drug 1 0.3 mg/kg PO) | % DECREASE ACTIVITY ([4]; drug 1 0.03 mg/kg PO) | % DECREASE ACTIVITY ([4]; drug 1 0.1 mg/kg PO) [% ^⋄ *] | % DECREASE ACTIVITY ([4]; drug 1 0.3 mg/kg PO) [% ^⋄] | also measured
Clc1cccc(CNC2=NCCN2)c1Cl [Compound F] | lack significant alpha-2A receptor activity | 26% ^⋄ * | 9933.0 ± 1898.7 |  |  |  |  |  |  | % DECREASE ACTIVITY REL TO VEH + AMPH ([2]; drug 1 0.3 mg/kg IP): 29% ^⋄ *; TOTAL ACTIVITY POST-AMPHETAMINE (AUC) ([2]; drug 1 0.3 mg/kg IP): 9442.3 ± 1306.7; % DECREASE ACTIVITY REL TO VEH + AMPH ([2]; drug 1 1 mg/kg IP): 45% ^⋄; TOTAL ACTIVITY POST-AMPHETAMINE (AUC) ([2]; drug 1 1 mg/kg IP): 7437.8 ± 1812.4; % DECREASE ACTIVITY REL TO VEH + AMPH ([2]; drug 1 3 mg/kg IP): 62% ^⋄; TOTAL ACTIVITY POST-AMPHETAMINE (AUC) ([2]; drug 1 3 mg/kg IP): 5169.0 ± 1481.4
Clc1cccc(C(c2ccccc2)c2c[nH]cn2)c1Cl (stereo not drawn) [Compound C] | lack significant alpha-2A receptor activity | 52% ^⋄ | 6348.0 ± 423.4 |  |  |  |  |  |  | 
O=C1c2ccccc2CC[C@H]1Cc1c[nH]c(=S)[nH]1 [Compound E] | lack significant alpha-2A receptor activity |  |  | 5033.5 ± 503.8 | 6263.0 ± 436.6 | 3662.1 ± 1458.2 | 52% ^⋄ * | 40 | 65 | % DECREASE ROTATIONS ([3]; drug 1 0.3 mg/kg PO): 58% ^⋄ *; TOTAL ACTIVITY POST-COCAINE (AUC) ([4]; drug 1 0.01 mg/kg PO): 5036.5 ± 464.2; % DECREASE ACTIVITY ([4]; drug 1 0.01 mg/kg PO): 52% ^⋄ *; % DECREASE ACTIVITY REL TO VEH + AMPH ([2]; drug 1 0.01 mg/kg PO): 15% *; TOTAL ACTIVITY POST-AMPHETAMINE (AUC) ([2]; drug 1 0.01 mg/kg PO): 11419.2 ± 550.4; % DECREASE ACTIVITY REL TO VEH + AMPH ([2]; drug 1 0.03 mg/kg PO): 58% ^⋄; TOTAL ACTIVITY POST-AMPHETAMINE (AUC) ([2]; drug 1 0.03 mg/kg PO): 5616.8 ± 618.2; % DECREASE ACTIVITY REL TO VEH + AMPH ([2]; drug 1 0.1 mg/kg PO): 66% ^⋄; TOTAL ACTIVITY POST-AMPHETAMINE (AUC) ([2]; drug 1 0.1 mg/kg PO): 4623.8 ± 1166.7; % DECREASE ACTIVITY REL TO VEH + AMPH ([2]; drug 1 1 mg/kg PO): 49% ^⋄ *; TOTAL ACTIVITY POST-AMPHETAMINE (AUC) ([2]; drug 1 1 mg/kg PO): 6867.3 ± 979.3; % DECREASE ACTIVITY REL TO VEH + AMPH ([2]; drug 1 10 mg/kg PO): 55% ^⋄; TOTAL ACTIVITY POST-AMPHETAMINE (AUC) ([2]; drug 1 10 mg/kg PO): 6026.0 ± 1007.9
OCCNC(=S)NCc1cccc(Cl)c1F [Compound A] | lack significant alpha-2A receptor activity | 55% ^⋄ | 5524.8 ± 624.2 | 8469 ± 935.01 | 6457.67 ± 754.0 | 3543 ± 648.02 | 19% * ^ | 38 | 66 | % DECREASE ROTATIONS ([3]; drug 1 0.03 mg/kg PO): 65% ^⋄ *

Reference: patent US20110160265A1, “METHOD OF TREATING MOTOR DISORDERS WITH ALPHA-2B ADRENERGIC RECEPTOR AGONISTS” (priority 2007, published 2011)
